Results on 2 molecules are retold here after paper PMC10223284, “Category-Based Toxicokinetic Evaluations of Data-Poor Per- and Polyfluoroalkyl Substances (PFAS) using Gas Chromatography Coupled with Mass Spectrometry” (Toxics, 2023).

A short description of series [1]: Abiotic loss in negative controls of the hepatocyte clearance assay (cell-free media, metabolically inactivated hepatocytes). The format is in vitro ADME. To be noted: flag for stability failure in hepatocyte clearance assay controls (1 or Fst = fail, 0 = pass). A digest of the protocol: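 Abiotic stability was checked with media-only and inactivated-hepatocyte controls, run at T0 and T240 or, on rerun, at more time points. Compound at 1 μM, 37 °C, acetonitrile quench. Loss rates served for background subtraction, and ≥50% loss by T120 meant exclusion.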

The subject of series [2] is human plasma. Kind of series: Chemical stability in plasma over the UC assay time course (T5hr/T1hr). The following applies: for PPB_Stab_Fail: flag for stability failure in the plasma protein binding assay (1 = fail, 0 = pass); for Fstable.Med: median fraction stable in plasma, UC assay Level4.
Series [3] deals with human plasma. Put plainly: Ultracentrifugation (UC) plasma protein binding assay, fraction unbound in plasma (fup). The following applies: for Fup.Med: median fraction unbound in plasma; for Fup.Med / Fup.point: UC assay Level4; for Fup.point: point estimate of fraction unbound in plasma.
Series [4] in a line: in vitro. To be noted: both, human, plasma.
Where [5] appears, read: Mean fu, fraction unbound in human plasma, ultracentrifugation, some values based on eLOQ.

Where “and” joins values, the source holds several entries; their conditions need not be identical. Identical values can stand only once.

As usually defined, the fraction unbound is free concentration divided by total concentration. Lower therefore signals extensive binding. Regarding `O=C(CC(=O)C(F)(F)C(F)(F)C(F)(F)F)c1cccs1` [(Perfluorobutyryl)-2-thenoylmethane], the Hep_Stab_Fail result in series [1] is given as “Fst”. Further, the “Stability (T5hr/ T1hr), Run-specific Avg” value in series [2] (average of one UC run (run date in line above)) is 1.277. In series [2] (chemical remaining in plasma over the PPB assay time course, NS = no significant loss), the “% remaining_PPB” value is recorded as 100%. Further, in series [2], the PPB_Stab_Fail is 0. In addition, in series [2] (mean T5hr/T1hr ratio over all replicates and runs, plasma), the “Mean Stability” value came out at 1.278. This molecule came in with a Fstable.Med in series [2] of 0.959. The “Stability (T5hr/ T1hr), replicates A, B, C” value in series [2] (single replicate of one UC run) was 1.693 and 1.2724 and 0.868. For the same molecule, in series [3], the Fup.Med stood at 0.00944. Besides, the Fup.point in series [3] is 0.00576. Besides, the “Fraction Unbound (fu), replicates A, B, C” value in series [3] (single replicate of one UC run (aqueous fraction / Time 5 hr)) is 0.006374 and 0.006195. The fraction unbound worked out at 0.00714 in series [4] (Fraction Unbound (fu), Run-specific Avg, average of one UC run (run date in line above)); 0.00885 in series [4] (Fraction Unbound (fu), replicates A, B, C, single replicate of one UC run (aqueous fraction / Time 5 hr)); 0.007 in series [4] (Mean Fu, mean fraction unbound over all replicates and runs, UC assay, human plasma); 0.006 in series [4] (setting [5]).
`FC(F)(I)C(F)(F)C(F)(F)C(F)(F)I` [Perfluoro-1,4-diiodobutane]: in series [1], the Hep_Stab_Fail was found to be 1. For the same molecule, the “Time 1 hr” value in series [2] (amount measured in plasma sample at 1 hr, replicates A, B, C, unit not given) was 1436.94 and 1194.41 and 1213.84. Moreover, the “Time 1 hr, Run-specific Avg” value in series [2] (amount measured in plasma sample at 1 hr, run average, unit not given) was determined as 1281.73. Further, the “Time 5 hr” value in series [2] (amount measured in plasma sample at 5 hr, replicates A, B, C, unit not given) is 860.037 and 995.998 and 977.671. Moreover, the “Time 5 hr, Run-specific Avg” value in series [2] (amount measured in plasma sample at 5 hr, run average, unit not given) is 928.02. For the same molecule, in series [2] (average of one UC run), the “Stability (T5hr/ T1hr), Run-specific Avg” value was found to be 0.724. The molecule also had a PPB_Stab_Fail in series [2] of 0. For the same molecule, the “Mean Stability” value in series [2] (mean T5hr/T1hr ratio in plasma over all replicates/runs) is 0.740. The same molecule yielded a Fstable.Med in series [2] of 0.11. In series [3] (amount measured in aqueous fraction after ultracentrifugation, replicates A, B, C, unit not given), the “Aqueous Fraction” value is 6.005 and 3.594 and 5.646. Besides, the “Aqueous Fraction, Run-specific Avg” value in series [3] (amount measured in aqueous fraction after ultracentrifugation, run average, unit not given) was 5.08. This molecule came in with a Fup.Med in series [3] of 0.00723. Further, the Fup.point in series [3] is 0.00533. The fraction unbound is 0.00546 in series [4] (Fraction Unbound (fu), Run-specific Avg, average of one UC run); 0.00698 in series [4] (Fraction Unbound (fu), individual replicates A, B, C of the UC run named in c8); 0.00546 in series [4] (Mean Fu, mean fraction unbound in human plasma over all UC replicates/runs); 0.0055 in series [4] (setting [5]).
